Patent US9732088B2, “C2-carbocyclic iminothiazine dioxides as BACE inhibitors, compositions, and their use” (Merck Sharp & Dohme Corp., priority 2014, dated 2017)

Legend:
[1] = target: soluble human BACE-1 catalytic domain (Homo sapiens (Human), UniProt P56817); assay: BACE-1 Ki Assay (BACE-1 HTRF FRET Assay); assay type: biochemical; conditions: Assay 1; Ki calculated from IC50 by Cheng-Prusoff
Procedure: Assay 1: BACE-1 Ki Assay (BACE-1 HTRF FRET Assay)
The compounds of the invention were determined to be potent inhibitors of BACE-1 using the following assay.
The following reagents were used in this assay. Na^+-Acetate pH 5.0; 1% Brij-35; Glycerol; Dimethyl Sulfoxide (DMSO); Recombinant human soluble BACE-1 catalytic domain (>95% pure); APP Swedish mutant peptide substrate (QSY7-APP^swe-Eu): QSY7-[…]-Europium-amide.
A homogeneous time-resolved FRET assay can be used to determine IC50 values for inhibitors of the soluble human BACE-1 catalytic domain. This assay monitors the increase of 620 nm fluorescence that resulted from BACE-1 cleavage of an APPswedish APP^swe mutant peptide FRET substrate (QSY7-[…]-Europium-amide). This substrate contains an N-terminal QSY7 moiety that serves as a quencher of the C-terminal Europium fluorophore (620 nm Em). In the absence of enzyme activity, 620 nm fluorescence is low in the assay and increased linearly over 3 hours in the presence of uninhibited BACE-1 enzyme. Inhibition of BACE-1 cleavage of the QSY7-APP^swe-Eu substrate by inhibitors is manifested as a suppression of 620 nm fluorescence.
Varying concentrations of inhibitors at 3× the final desired concentration in a volume of […] are preincubated with purified human BACE-1 catalytic domain (3 nM in 10 μl) for 30 minutes at 30° C. in reaction buffer containing 20 mM Na-Acetate pH 5.0, 10% glycerol, 0.1% Brij-35 and 7.5% DSMO. Reactions are initiated by addition of 10 μl of 600 nM QSY7-APP^swe-Eu substrate (200 nM final) to give a final reaction volume of 30 μl in a 384 well Nunc HTRF plate. The reactions are incubated at 30° C. for 1.5 hours. The 620 nm fluorescence is then read on a Rubystar HTRF plate reader (BMG Labtechnologies) using a […] delay followed by a 400 millisecond acquisition time window. Inhibitor IC50 values are derived from non-linear regression analysis of concentration response curves. Ki values are then calculated from IC50 values using the Cheng-Prusoff equation using a previously determined […] of 8 μM for the QSY7-APP^swe-Eu substrate at BACE-1. The example compounds of the invention were measured in this assay.

[2] = target: purified human autoBACE-2 (Homo sapiens (Human), UniProt Q9Y5Z0); assay: BACE-2 Assay (BACE-HTRF assay); assay type: biochemical; conditions: Assay 2; Ki calculated from IC50 by Cheng-Prusoff; read-out: BACE2 Ki
Chain of purified human autoBACE-2 (Q9Y5Z0 63-466): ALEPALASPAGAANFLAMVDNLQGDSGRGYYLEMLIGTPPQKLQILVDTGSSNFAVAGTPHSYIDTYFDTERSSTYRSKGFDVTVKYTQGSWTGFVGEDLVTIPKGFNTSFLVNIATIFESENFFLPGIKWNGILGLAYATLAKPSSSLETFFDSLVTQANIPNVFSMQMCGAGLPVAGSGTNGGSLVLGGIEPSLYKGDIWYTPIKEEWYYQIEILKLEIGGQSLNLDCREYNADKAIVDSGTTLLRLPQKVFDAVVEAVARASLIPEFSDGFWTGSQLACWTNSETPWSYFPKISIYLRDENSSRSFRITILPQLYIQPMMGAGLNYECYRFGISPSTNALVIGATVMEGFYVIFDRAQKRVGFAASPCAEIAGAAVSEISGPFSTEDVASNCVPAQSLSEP
Procedure: The compounds of the invention were determined to be potent inhibitors of BACE-2 using the following assay. Inhibitor IC50s at purified human autoBACE-2 are determined in a time-resolved endpoint proteolysis assay that measures hydrolysis of the QSY7-[…]-Eu-amide FRET peptide substrate (BACE-HTRF assay). BACE-mediated hydrolysis of this peptide results in an increase in relative fluorescence (RFU) at 620 nm after excitation with 320 nm light Inhibitor compounds, prepared at 3× the desired final concentration in 1×BACE assay buffer (20 mM sodium acetate pH 5.0, 10% glycerol, 0.1% Brij-35) supplemented with 7.5% DMSO are pre-incubated with an equal volume of autoBACE-2 enzyme diluted in 1×BACE assay buffer (final enzyme concentration 1 nM) in black 384-well NUNC plates for 30 minutes at 30° C. […] DMSO is present at […] final concentration in the assay. Following laser excitation of sample wells at 320 nm, the fluorescence signal at 620 nm is collected for 400 ms following a 50 μs delay on a RUBYstar HTRF plate reader (BMG Labtechnologies). Raw RFU data is normalized to maximum (1.0 nM BACE/DMSO) and minimum (no enzyme/DMSO) RFU values. IC50 values are determined by nonlinear regression analysis (sigmoidal dose response, variable slope) of percent inhibition data with minimum and maximum values set to 0 and 100 percent respectively. Similar IC50s are obtained when using raw RFU data. The Ki values are calculated from the IC50 using the Cheng-Prusoff equation.

BACE-1 = BACE-1 (Homo sapiens (Human), UniProt P56817); assay: BACE-1 Cellular Assay (Aβ in HEK293-APPswe/lon cells); assay type: cell-based; conditions: 4 hours
Chain of BACE-1 (P56817 46-501): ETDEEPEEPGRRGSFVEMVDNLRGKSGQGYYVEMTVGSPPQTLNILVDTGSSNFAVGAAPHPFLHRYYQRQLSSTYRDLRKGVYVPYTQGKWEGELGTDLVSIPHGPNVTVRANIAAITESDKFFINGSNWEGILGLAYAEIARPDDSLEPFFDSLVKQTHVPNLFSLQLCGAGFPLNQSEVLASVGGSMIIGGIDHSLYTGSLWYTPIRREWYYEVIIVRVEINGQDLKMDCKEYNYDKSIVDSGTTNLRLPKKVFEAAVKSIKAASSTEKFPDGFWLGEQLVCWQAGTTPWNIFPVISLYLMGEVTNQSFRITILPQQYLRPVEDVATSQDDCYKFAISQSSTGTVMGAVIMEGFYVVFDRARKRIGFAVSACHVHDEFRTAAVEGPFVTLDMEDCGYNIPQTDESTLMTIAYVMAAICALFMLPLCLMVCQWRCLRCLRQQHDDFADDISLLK
Procedure: Assay 3: BACE-1 Cellular Assay
Certain compounds of the invention, identified in the tables herein, were determined to be potent inhibitors of BACE-1 in the following cellular assay. HEK293 cells are obtained from the American Type Culture Collection (ATCC) and stably transfected with the human amyloid precursor protein cDNA containing the FAD Swedish (enhances β-secretase processing) and London (enhances Aβ42 cleavage) mutations. A HEK293 stable clone with Aβ expression (HEK293-APP^swe/lon) is identified and maintained at 37° C., 5% CO2 in the ATCC-recommended growth media supplemented with hygromycin. […] Aβ40 or Aβ42 are measured in 15 μl of media using a mesoscale based ELISA assay. Full length Aβ40 and Aβ42 peptides are captured with the N-terminal specific biotinylated-WO2 monoclonal antibody and detected using either the ruthenylated Aβ40 C-terminal specific monoclonal antibody, G2-10 or the ruthenylated Aβ42 C-terminal specific monoclonal antibody G2-11 respectively. Raw electrochemiluminescnce values are measured using a Mesoscale Sector Imager plate reader and are plotted as a function of compound concentration. IC50 values are interpolated from the data using nonlinear regression analysis (Sigmoidal dose response fit with variable slope) of the data using GraphPad Prism software.

[3] = target: purified human Cathepsin-D (Homo sapiens (Human), UniProt P07339); assay: Cathepsin-D Assay (time-resolved FRET); assay type: biochemical; conditions: Assay 4; Ki calculated from IC50 by Cheng-Prusoff;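 also: Europium-labelled peptide substrate with QSY7 quencher, cleavage read as 620 nm fluorescence after 30 min preincubation then 30 min reaction at 30 °C, pH 5.0, inhibition lowers signal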
Chain of purified human Cathepsin-D (P07339 65-412): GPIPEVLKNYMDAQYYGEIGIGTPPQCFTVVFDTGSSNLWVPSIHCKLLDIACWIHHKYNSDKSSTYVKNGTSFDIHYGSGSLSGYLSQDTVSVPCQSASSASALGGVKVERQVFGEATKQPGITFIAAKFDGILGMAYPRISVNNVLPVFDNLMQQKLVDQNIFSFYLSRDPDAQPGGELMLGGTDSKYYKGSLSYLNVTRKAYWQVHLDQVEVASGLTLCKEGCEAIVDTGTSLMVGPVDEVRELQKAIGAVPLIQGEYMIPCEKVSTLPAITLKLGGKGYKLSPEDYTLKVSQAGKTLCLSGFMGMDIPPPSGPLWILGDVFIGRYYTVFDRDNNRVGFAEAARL
Procedure: Assay 4: Cathepsin-D Assay
This substrate contains an C-terminal QSY7 moiety that serves as a quencher of the N-terminal Europium fluorophore (620 nm Em). In the absence of enzyme activity, 620 nm fluorescence is low in the assay and increased linearly over 1 hour in the presence of uninhibited Cathepsin-D enzyme. Inhibition of Cathespin D cleavage of the Eu-Aspartyl Protease-QSY7 substrate by inhibitors is manifested as a suppression of 620 nm fluorescence.
Varying concentrations of inhibitors in a volume of 100 nl are preincubated with purified human Cathepsin-D (0.1 nM in 10 μl) for 30 minutes at 30° C. in reaction buffer containing 100 mM Na-Acetate pH 5.0, and 0.02% Brij-35. Reactions are initiated by addition of 10 μl of 100 nM Eu-Aspartyl Protease-QSY7 substrate (50 nM final) to give a final reaction volume of 20 μl in a 384 well Nunc HTRF plate. The reactions are incubated at 30° C. for 30 minutes. The 620 nm fluorescence is then read on a Envision Multilabel plate reader (Perkin-Elmer) using a 200 microsecond delay followed by a 400 microsecond acquisition time window. Inhibitor IC50 values are derived from non-linear regression analysis of concentration response curves.

Chain of soluble human BACE-1 catalytic domain (P56817 75-416): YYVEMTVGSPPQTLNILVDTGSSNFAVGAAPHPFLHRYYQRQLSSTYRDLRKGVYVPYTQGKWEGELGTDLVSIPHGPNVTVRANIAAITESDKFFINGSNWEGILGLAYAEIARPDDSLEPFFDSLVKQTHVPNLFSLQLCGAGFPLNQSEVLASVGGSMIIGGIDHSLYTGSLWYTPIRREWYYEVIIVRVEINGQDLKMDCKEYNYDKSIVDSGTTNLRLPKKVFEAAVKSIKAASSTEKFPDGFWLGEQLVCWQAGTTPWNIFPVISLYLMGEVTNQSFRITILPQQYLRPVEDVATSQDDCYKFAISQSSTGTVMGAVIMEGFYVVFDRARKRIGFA

SMILES | Ki [1] | Ki [2] | IC50 (BACE-1) | Ki [3]
C[C@@]1(c2nc(Nc3nccc4cc(C#N)cnc34)ccc2F)CS(=O)(=O)[C@@](CF)(C2CC2)C(N)=N1 [Example 2, 8-({6-[(3R,6S)-6-cyclopropyl-6-(fluoromethyl)-5-imino-3-methyl-1,1-dioxidothiomoipholin-3-yl]-5-fluoropyridin-2-yl}amino)-1,7-naphthyridine-3-carbonitrile] | 15 nM | 6.9 nM | 52 nM | 159 nM
C[C@@]1(c2cc(Nc3nccc4cc(Br)cnc34)ncc2F)CS(=O)(=O)[C@@](C)(C2CC2)C(N)=N1 [Example 3, 3-bromo-N-{4-[(3R,6S)-6-cyclopropyl-5-imino-3,6-dimethyl-1,1-dioxidothiomorpholin-3-yl]-5-fIuoropyridin-2-yl}-1,7-naphthyridin-8-amine] | 1.5 nM | 0.35 nM | 25 nM | 5530 nM
C[C@@]1(c2cc(Nc3nccc4cc(C#N)cnc34)ncc2F)CS(=O)(=O)[C@@](C)(C2CC2)C(N)=N1 [Example 4, 8-({4-[(3R,6S)-6-cyclopropyl-5-imino-3,6-dimethyl-1,1-dioxidothiomorpholin-3-yl]-5-fluoropyridin-2-yl}amino)-1,7-naphthyridine-3-carbonitrile] | 3.8 nM | 1.5 nM | 19 nM | 6650 nM
COc1cnc2c(Nc3ccc(F)c([C@]4(C)CS(=O)(=O)[C@@](CF)(C5CC5)C(N)=N4)c3)nccc2n1 [Example 8, N-{3-[(3R,6S)-6-cyclopropyl-6-(fluoromethyl)-5-imino-3-methyl-1,1-dioxidothiomoipholin-3-yl]-4-fluorophenyl}-2-methoxypyrido[3,4-b]pyrazin-5-amine] | 4.5 nM | 4.2 nM | 91 nM | 4010 nM
COc1cnc2c(Nc3cc([C@]4(C)CS(=O)(=O)[C@@](C)(C5CC5)C(N)=N4)c(F)cn3)nccc2n1 [Example 9, N-{4-[(3R,6S)-6-cyclopropyl-5-imino-3,6-dimethyl-1,1-dioxidothiomorpholin-3-yl]-5-fluoropyridin-2-yl}-2-methoxypyrido[3,4-b]pyrazin-5-amine] | 13.6 nM | 1.3 nM | 111 nM | > 9400 nM
CC#CCOc1cnc2c(Nc3cc([C@]4(C)CS(=O)(=O)[C@@](C)(C5CC5)C(N)=N4)c(F)cn3)nccc2c1 [Example 10, 3-(but-2-yn-1-yloxy)-N-{4-[(3R,6S)-6-cyclopropyl-5-imino-3,6-dimethyl-1,1-dioxidothiomorpholin-3-yl]-5-fluoropyridin-2-yl}-1,7-naphthyridin-8-amine] | 0.79 nM | 0.64 nM | 0.25 nM | > 9400 nM
CC#CCOc1cnc2c(Nc3cnc(F)c([C@]4(C)CS(=O)(=O)[C@@](CF)(C5CC5)C(N)=N4)c3)nccc2c1 [Example 11, 3-(but-2-yn-1-yloxy)-N-{5-[(3R,6S)-6-cyclopropyl-6-(fluoromethyl)-5-imino-3-methyl-1,1-dioxidothiomorpholin-3-yl]-6-fluoropyridin-3-yl}-1,7-naphthyridin-8-amine] | 0.91 nM | 7.5 nM | 4.1 nM | 857 nM
COc1cnc2c(Nc3cnc(F)c([C@]4(C)CS(=O)(=O)[C@@](CF)(C5CC5)C(N)=N4)c3)nccc2c1 [Example 12, N-{5-[(3R,6S)-6-cyclopropyl-6-(fluoromethyl)-5-imino-3-methyl-1,1-dioxidothiomorpholin-3-yl]-6-fluoropyridin-3-yl}-3-methoxy-1,7-naphthyridin-8-amine] | 6.1 nM | 3.3 nM | 99 nM | 629 nM
CC#CCOc1cnc2c(Nc3cnc(F)c([C@]4(C)CS(=O)(=O)[C@@](CF)(C5CC5)C(N)=N4)c3)nccc2n1 [Example 13, 2-(but-2-yn-1-yloxy)-N-{5-[(3R,6S)-6-cyclopropyl-6-(fluoromethyl)-5-imino-3-methyl-1,1-dioxidothiomorpholin-3-yl]-6-fluoropyridin-3-yl}pyrido[3,4-b]pyrazin-5-amine] | 0.65 nM | 1.1 nM | 6.6 nM | 3380 nM
C[C@@]1(c2cc(Nc3ncnc4cc(Br)cnc34)ccc2F)CS(=O)(=O)[C@@](C)(C2CC2)C(N)=N1 [Example 15, 7-bromo-N-{3-[(3R,6S)-6-cyclopropyl-5-imino-3,6-dimethyl-1,1-dioxidothiomorpholin-3-yl]-4-fluorophenyl}pyrido[3,2-d]pyrimidin-4-amine] | 1.8 nM | 0.73 nM | 3.4 nM | 321 nM
C[C@@]1(c2cc(Nc3nccc4cc(Br)cnc34)ccc2F)CS(=O)(=O)[C@@](C)(C2CC2)C(N)=N1 [Example 17, 3-bromo-N-{3-[(3R,6S)-6-cyclopropyl-5-imino-3,6-dimethyl-1,1-dioxidothiomorpholin-3-yl]-4-fluorophenyl}-1,7-naphthyridin-8-amine] | 1.4 nM | 0.41 nM | 16 nM | 146 nM
COc1cnc2c(Nc3cc([C@]4(C)CS(=O)(=O)[C@@](C)(C5CC5)C(N)=N4)c(F)cn3)ncnc2c1 [Example 19, N-{4-[(3R,6S)-6-cyclopropyl-5-imino-3,6-dimethyl-1,1-dioxidothiomorpholin-3-yl]-5-fluoropyridin-2-yl}-7-methoxypyrido[3,2-d]pyrimidin-4-amine] | 67 nM | 21 nM | 192 nM | 9300 nM
COc1cnc2c(Nc3cc([C@]4(C)CS(=O)(=O)[C@@](C)(C5CC5)C(N)=N4)c(F)cn3)ccnc2c1 [Example 21, (2S,5R)-2-cyclopropyl-5-(5-fluoro-2-((7-methoxy-1,5-naphthyridin-4-yl)amino)pyridin-4-yl)-3-imino-2,5-dimethylthiomorpholine 1,1-dioxide] | 5.3 nM | 1.9 nM |  | 
COc1cnc2c(Nc3cc([C@]4(C)CS(=O)(=O)[C@@](C)(C5CC5)C(N)=N4)c(F)cn3)ncnc2n1 [Example 23, (2S,5R)-2-cyclopropyl-5-(5-fluoro-2-((7-methoxypteridin-4-yl)amino)pyridin-4-yl)-3-imino-2,5-dimethylthiomorpholine 1,1-dioxide] | 271 nM | 129 nM |  | > 9400 nM
CC1(C)C(=N)N[C@](C)(c2nc(Nc3cccc(Cl)c3F)ccc2F)CS1(=O)=O [WO′426 Ex. 30, reference compound] | 3200 nM | 862 nM |  | 
COc1ccccc1Nc1ccc(F)c([C@]2(C)CS(=O)(=O)C(C)(C)C(=N)N2)n1 [WO′426 Ex. 30a, reference compound] | 5280 nM | 517 nM |  | 
